The text below walks through data of US11584714B2 (priority 2018, dated 2023).

The structures appear in SMILES notation. Structures can show the parent of a compound that is named as a salt. Where two headings read alike, the source gives them in different places. A value given as a limit tells only on which side of the number the result lay.

Usually IC50 stands for the concentration that inhibits the measured activity by half. By Ki is commonly meant a dissociation constant, usually derived from enzyme kinetics or from competition with a known ligand.

What all share (type): biochemical
In one test the test system is Lectin Pathway. As to the kind of experiment: Lectin pathway activation assay in human serum (mannan-coated ELISA, C3c detection). The following applies: 1% human serum. (ELISA stands for enzyme-linked immunosorbent assay.)
The next test concerns the target mMASP-2 (Mus musculus (Mouse), UniProt Q91WP0). Kind of test: Enzymatic inhibition of mMASP-2.
Another test concerns the target MASP-2 (CCP1-CCP2-SP) (Homo sapiens (Human), UniProt O00187). Kind of test: biochemical.
In a further test the target is human α-thrombin (Homo sapiens (Human), UniProt P00734). As to the kind of experiment: Enzymatic assay for thrombin (Boc-VPR-AMC substrate).
Setting [1] is: selectivity for MASP-2 inhibition versus thrombin.

Sequence of mMASP-2 (Q91WP0 20-685): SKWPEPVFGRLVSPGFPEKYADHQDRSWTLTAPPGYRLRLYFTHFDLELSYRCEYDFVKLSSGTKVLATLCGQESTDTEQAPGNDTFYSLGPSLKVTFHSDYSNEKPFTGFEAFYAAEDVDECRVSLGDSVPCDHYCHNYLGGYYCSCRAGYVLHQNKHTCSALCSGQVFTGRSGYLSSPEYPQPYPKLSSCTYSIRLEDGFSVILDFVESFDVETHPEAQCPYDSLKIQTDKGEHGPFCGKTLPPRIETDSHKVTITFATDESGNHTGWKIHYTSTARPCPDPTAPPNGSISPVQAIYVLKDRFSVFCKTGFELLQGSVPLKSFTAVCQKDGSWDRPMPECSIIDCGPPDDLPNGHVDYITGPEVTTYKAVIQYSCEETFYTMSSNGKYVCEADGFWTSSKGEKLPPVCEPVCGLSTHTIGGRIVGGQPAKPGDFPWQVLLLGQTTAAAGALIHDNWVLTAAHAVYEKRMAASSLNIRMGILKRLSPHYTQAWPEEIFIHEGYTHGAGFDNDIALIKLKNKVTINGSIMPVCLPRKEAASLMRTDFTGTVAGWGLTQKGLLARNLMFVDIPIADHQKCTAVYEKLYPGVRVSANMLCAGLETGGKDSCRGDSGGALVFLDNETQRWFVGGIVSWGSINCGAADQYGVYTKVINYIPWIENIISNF
Sequence of MASP-2 (CCP1-CCP2-SP) (O00187 445-686): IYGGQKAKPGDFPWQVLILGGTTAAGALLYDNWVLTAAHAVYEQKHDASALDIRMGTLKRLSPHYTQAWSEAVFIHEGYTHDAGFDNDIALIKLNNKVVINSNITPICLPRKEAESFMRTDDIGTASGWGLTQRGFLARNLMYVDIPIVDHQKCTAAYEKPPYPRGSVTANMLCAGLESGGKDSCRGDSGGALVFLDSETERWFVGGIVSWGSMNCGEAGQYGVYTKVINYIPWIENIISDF

For `N=C(N)c1ccc(CNC(=O)[C@@H]2CCN2C(=O)[C@@H](N)C2CCCCC2)cc1` [compound 1018], the IC50 in the test with Lectin Pathway is greater than 50000 nM.

In the case of `C[C@H](NC(=O)[C@H]1Cc2ccccc2CN1)C(=O)NCc1ccc2c(N)nccc2c1` [compound 1053], the IC50 in the test on Lectin Pathway fell in the range of 500 to 5000 nM.

For the molecule `Cc1nc(N)ccc1CNC(=O)[C@H](C)NC(=O)[C@H]1C[C@H](Cc2cccc3cnccc23)CN1` [compound 1343, (2R,4S)—N—((S)-1-(((6-Amino-2-methylpyridin-3-yl)methyl)amino)-1-oxopropan-2-yl)-4-(isoquinolin-5-ylmethyl)pyrrolidine-2-carboxamide Di-trifluoroacetate salt], the IC50 with Lectin Pathway lay within 50 to 500 nM.

Turning to `N=C(N)c1ccc(CNC(=O)CNC(=O)[C@H](NCC(=O)O)C2CCCCC2)cc1` [compound 1054], the IC50 in the test with Lectin Pathway was 5000 to 50000 nM.

As for `C[C@H](NC(=O)[C@@H](CCc1ccccc1)NCc1ccc(N2CCN(S(C)(=O)=O)CC2)cc1)C(=O)NCc1ccc(C(=N)N)cc1` [compound 1250, (R)—N—((S)-1-((4-Carbamimidoylbenzyl)amino)-1-oxopropan-2-yl)-2-((4-(4-(methylsulfonyl)piperazin-1-yl)benzyl)amino)-4-phenylbutanamide], the inhibition constant (Ki) at mMASP-2 (read-out: mMASP-2 Ki) is less than 500 nM; on MASP-2 (CCP1-CCP2-SP) (read-out: MASP-2 Ki), less than 500 nM; on human α-thrombin (read-out: Thrombin Ki), less than 0.5 µM. Besides, at MASP-2 (CCP1-CCP2-SP) (setting [1]), the “MASP-2 vs. thrombin selectivity” value is on record as “* (≥1.0 to <5.0-fold)”.

Regarding `Cc1cccc([C@H]2CCN[C@@H](C(=O)N[C@@H](C)C(=O)NCc3ccc(C(=N)N)cc3)C2)c1` [compound 1231, (2R,4S)—N—((S)-1-((4-Carbamimidoylbenzyl)amino)-1-oxopropan-2-yl)-4-(m-tolyl)piperidine-2-carboxamide], the inhibition constant Ki on mMASP-2 (read-out: mMASP-2 Ki) was less than 500 nM; at MASP-2 (CCP1-CCP2-SP) (read-out: MASP-2 Ki), less than 500 nM; at human α-thrombin (Thrombin Ki (μM)), 2.5 to 10 µM. Moreover, the “MASP-2 vs. thrombin selectivity” value on MASP-2 (CCP1-CCP2-SP) (setting [1]) is on record as “**** (≥100-fold)”.

`Cc1nc(N)ccc1CNC(=O)[C@H](C)NC(=O)[C@H]1C[C@H](Cc2ccccc2-c2ccccc2)CN1` [compound 1373, (2R,4S)-4-([1,1′-Biphenyl]-2-ylmethyl)-N-((S)-1-(((6-amino-2-methylpyridin-3-yl)methyl)amino)-1-oxopropan-2-yl)pyrrolidine-2-carboxamide Di-trifluoroacetate salt]: the Ki at mMASP-2 (read-out: mMASP-2 Ki) is less than 500 nM; at MASP-2 (CCP1-CCP2-SP) (read-out: MASP-2 Ki), less than 500 nM; at human α-thrombin (Thrombin Ki (μM)), 0.5 to 2.5 µM. Moreover, the “MASP-2 vs. thrombin selectivity” value on MASP-2 (CCP1-CCP2-SP) (setting [1]) is reported as “*** (≥25 to <100-fold)”.

Regarding `Cc1nc(N)ccc1CNC(=O)[C@H](C)NC(=O)[C@H]1C[C@H](Cc2ccc(-c3ccccc3)cc2)CN1` [compound 1351, (2R,4S)-4-([1,1′-Biphenyl]-4-ylmethyl)-N-((S)-1-(((6-amino-2-methylpyridin-3-yl)methyl)amino)-1-oxopropan-2-yl)pyrrolidine-2-carboxamide Dihydrochloride], the inhibition constant Ki was less than 500 nM at mMASP-2 (read-out: mMASP-2 Ki), less than 500 nM on MASP-2 (CCP1-CCP2-SP) (read-out: MASP-2 Ki) and greater than 25 µM at human α-thrombin (read-out: Thrombin Ki). In addition, at MASP-2 (CCP1-CCP2-SP) (setting [1]), the “MASP-2 vs. thrombin selectivity” value is reported as “**** (≥100-fold)”.

Regarding `Cc1nc(N)ccc1CNC(=O)[C@H](C)N(C)C(=O)[C@H]1C[C@H](Cc2ccc(Br)cc2)CN1` [compound 1497, (2R,4S)—N—((S)-1-(((6-Amino-2-methylpyridin-3-yl)methyl)amino)-1-oxopropan-2-yl)-4-(4-bromobenzyl)-N-methylpyrrolidine-2-carboxamide Di-trifluoroacetate salt], the inhibition constant Ki at mMASP-2 (read-out: mMASP-2 Ki) was 2500 to 10000 nM; on MASP-2 (CCP1-CCP2-SP) (read-out: MASP-2 Ki), less than 500 nM; at human α-thrombin (Thrombin Ki (μM)), 2.5 to 10 µM. Besides, the “MASP-2 vs. thrombin selectivity” value on MASP-2 (CCP1-CCP2-SP) (setting [1]) was “** (≥5.0 to <25-fold)”.

In the case of `CC[C@H](NC(=O)[C@H](N)CCc1ccccc1)C(=O)NCc1ccc(C(=N)N)cc1` [compound 1289, (R)-2-Amino-N—((S)-1-((4-carbamimidoylbenzyl)amino)-1-oxobutan-2-yl)-4-phenylbutanamide], the Ki was less than 500 nM at mMASP-2 (read-out: mMASP-2 Ki), less than 500 nM at MASP-2 (CCP1-CCP2-SP) (read-out: MASP-2 Ki) and less than 0.5 µM on human α-thrombin (read-out: Thrombin Ki). The “MASP-2 vs. thrombin selectivity” value at MASP-2 (CCP1-CCP2-SP) (setting [1]) was “−− (<1.0-fold)”.

For `C[C@H](NC(=O)[C@H]1C[C@H](Cc2ccccc2)CN1)C(=O)NCc1cc2cnccc2[nH]1` [compound 1472, (2R,4S)—N—((S)-1-(((1H-Pyrrolo[3,2-c]pyridin-2-yl)methyl)amino)-1-oxopropan-2-yl)-4-benzylpyrrolidine-2-carboxamide Di-trifluoroacetate salt], the values for the Ki on mMASP-2 (read-out: mMASP-2 Ki), at MASP-2 (CCP1-CCP2-SP) (read-out: MASP-2 Ki) and at human α-thrombin (Thrombin Ki (μM)) were less than 500 nM, less than 500 nM and 2.5 to 10 µM, respectively. In addition, on MASP-2 (CCP1-CCP2-SP) (setting [1]), the “MASP-2 vs. thrombin selectivity” value is given as “**** (≥100-fold)”.

Take `COc1ccc(-c2c[nH]c(C(=O)N[C@@H](C)C(=O)NCc3ccc(C(=N)N)cc3)c2)cc1` [compound 1238, (S)—N-(1-((4-Carbamimidoylbenzyl)amino)-1-oxopropan-2-yl)-4-(4-methoxyphenyl)-1H-pyrrole-2-carboxamide]: the Ki was less than 500 nM on mMASP-2 (read-out: mMASP-2 Ki), less than 500 nM at MASP-2 (CCP1-CCP2-SP) (read-out: MASP-2 Ki) and 2.5 to 10 µM on human α-thrombin (Thrombin Ki (μM)). Besides, the “MASP-2 vs. thrombin selectivity” value on MASP-2 (CCP1-CCP2-SP) (setting [1]) is “*** (≥25 to <100-fold)”.

In the case of `C[C@H](NC(=O)[C@H]1C[C@H](c2ccccc2)CN1)C(=O)NCc1ccn2ccnc2c1` [compound 1366, (2R,4R)—N—((S)-1-((Imidazo[1,2-a]pyridin-7-ylmethyl)amino)-1-oxopropan-2-yl)-4-phenylpyrrolidine-2-carboxamide Dihydrochloride], the Ki is 2500 to 10000 nM on mMASP-2 (read-out: mMASP-2 Ki), 2500 to 10000 nM at MASP-2 (CCP1-CCP2-SP) and greater than 25 µM on human α-thrombin (read-out: Thrombin Ki).

As to `CCCOC(=O)NC(=N)c1ccc(CNC(=O)[C@H](C)NC(=O)[C@H]2C[C@H](c3ccccc3)CN2)cc1` [compound 1263, Propyl (imino(4-(((S)-2-((2R,4R)-4-phenylpyrrolidine-2-carboxamido)propanamido)methyl)phenyl)methyl)carbamate], the Ki was 2500 to 10000 nM on mMASP-2, 2500 to 10000 nM on MASP-2 (CCP1-CCP2-SP) and greater than 25 µM on human α-thrombin (read-out: Thrombin Ki).

For the molecule `C[C@H](NC(=O)[C@H]1C[C@H](c2ccccc2)CN1)C(=O)NCc1cc(O)cc(Cl)c1` [compound 1364, (2R,4R)—N—((S)-1-((3-Chloro-5-hydroxybenzyl)amino)-1-oxopropan-2-yl)-4-phenylpyrrolidine-2-carboxamide Hydrochloride], the inhibition constant Ki at mMASP-2 (read-out: mMASP-2 Ki) is 10000 to 25000 nM; at MASP-2 (CCP1-CCP2-SP) it was 500 to 2500 nM; on human α-thrombin (read-out: Thrombin Ki) it was greater than 25 µM.

With `C[C@H](NC(=O)[C@H]1C[C@H](c2ccccc2)CN1)C(=O)NCc1cc2cnccc2[nH]1` [compound 1463, (2R,4R)—N—((S)-1-(((1H-Pyrrolo[3,2-c]pyridin-2-yl)methyl)amino)-1-oxopropan-2-yl)-4-phenylpyrrolidine-2-carboxamide Di-trifluoroacetate salt], the Ki was less than 500 nM at mMASP-2 (read-out: mMASP-2 Ki), less than 500 nM on MASP-2 (CCP1-CCP2-SP) (read-out: MASP-2 Ki) and greater than 25 µM at human α-thrombin (read-out: Thrombin Ki).

On to `C[C@H](NC(=O)[C@H]1C[C@H](Cc2ccccc2-c2ccccc2)CN1)C(=O)NCc1cc(Cl)ccc1-n1cnnn1` [compound 1402, (2R,4S)-4-([1,1′-Biphenyl]-2-ylmethyl)-N-((S)-1-((5-chloro-2-(1H-tetrazol-1-yl)benzyl)amino)-1-oxopropan-2-yl)pyrrolidine-2-carboxamide Trifluoroacetate], for which the Ki was 500 to 2500 nM at mMASP-2 (read-out: mMASP-2 Ki), less than 500 nM on MASP-2 (CCP1-CCP2-SP) (read-out: MASP-2 Ki) and less than 0.5 µM on human α-thrombin (read-out: Thrombin Ki). Besides, the “MASP-2 vs. thrombin selectivity” value at MASP-2 (CCP1-CCP2-SP) (setting [1]) was “* (≥1.0 to <5.0-fold)”.

Turning to `C[C@H](NC(=O)[C@H]1C[C@H](c2ccccc2)CN1)C(=O)NCc1ccc(C(N)=O)nc1` [compound 1273, 5-(((S)-2-((2R,4R)-4-Phenylpyrrolidine-2-carboxamido)propanamido)methyl)picolinamide], the Ki was 10000 to 25000 nM at mMASP-2 (read-out: mMASP-2 Ki), 10000 to 25000 nM at MASP-2 (CCP1-CCP2-SP) and greater than 25 µM at human α-thrombin (read-out: Thrombin Ki).

On to `C[C@H](NC(=O)[C@@H](CCc1ccccc1)NCc1ccccc1)C(=O)NCc1ccc(C(=N)N)cc1` [compound 1134], for which the figures for the Ki at mMASP-2 (read-out: mMASP-2 Ki), at MASP-2 (CCP1-CCP2-SP) (read-out: MASP-2 Ki) and at human α-thrombin (read-out: Thrombin Ki) were less than 500 nM, less than 500 nM and less than 0.5 µM, respectively. The “MASP-2 vs. thrombin selectivity” value at MASP-2 (CCP1-CCP2-SP) (MASP-2 inhibition versus thrombin) is “−− (less than 1.0-fold)”.

Turning to `Cc1nc(N)ccc1CNC(=O)[C@H](C)NC(=O)[C@H]1C[C@H](Cc2cc(Br)no2)CN1` [compound 1421, (2R,4R)—N—((S)-1-(((6-Amino-2-methylpyridin-3-yl)methyl)amino)-1-oxopropan-2-yl)-4-((3-bromoisoxazol-5-yl)methyl)pyrrolidine-2-carboxamide Di-trifluoroacetate salt], the values for the Ki on mMASP-2 (read-out: mMASP-2 Ki), at MASP-2 (CCP1-CCP2-SP) (read-out: MASP-2 Ki) and on human α-thrombin (Thrombin Ki (μM)) were 500 to 2500 nM, less than 500 nM and 10 to 25 µM, respectively. Moreover, the “MASP-2 vs. thrombin selectivity” value at MASP-2 (CCP1-CCP2-SP) (setting [1]) was “**** (≥100-fold)”.

Turning to `C[C@H](NC(=O)[C@H]1C[C@@H](Cc2ccccc2)CN1)C(=O)NCc1ccc(C(=N)N)cc1` [compound 1284, (2R,4R)-4-Benzyl-N-((S)-1-((4-carbamimidoylbenzyl)amino)-1-oxopropan-2-yl)pyrrolidine-2-carboxamide], the values for the Ki on mMASP-2 (read-out: mMASP-2 Ki), on MASP-2 (CCP1-CCP2-SP) (read-out: MASP-2 Ki) and on human α-thrombin (read-out: Thrombin Ki) were less than 500 nM, less than 500 nM and less than 0.5 µM, respectively. For the same molecule, the “MASP-2 vs. thrombin selectivity” value on MASP-2 (CCP1-CCP2-SP) (setting [1]) is “* (≥1.0 to <5.0-fold)”.

With `Cc1nc(N)ccc1CNC(=O)[C@H](C)NC(=O)[C@H]1C[C@H](Cc2ccc3nonc3c2)CN1` [compound 1470, (2R,4S)—N—((S)-1-(((6-Amino-2-methylpyridin-3-yl)methyl)amino)-1-oxopropan-2-yl)-4-(benzo[c][1,2,5]oxadiazol-5-ylmethyl)pyrrolidine-2-carboxamide Di-trifluoroacetate salt], the inhibitory constant (Ki) was less than 500 nM on mMASP-2 (read-out: mMASP-2 Ki), less than 500 nM at MASP-2 (CCP1-CCP2-SP) (read-out: MASP-2 Ki) and 2.5 to 10 µM on human α-thrombin (Thrombin Ki (μM)). In addition, the “MASP-2 vs. thrombin selectivity” value on MASP-2 (CCP1-CCP2-SP) (setting [1]) is given as “**** (≥100-fold)”.

With `C[C@H](NC(=O)[C@H]1C[C@H](c2ccccc2)CN1)C(=O)NCc1cc(Cl)cnc1N` [compound 1358, (2R,4R)—N—((S)-1-(((2-Amino-5-chloropyridin-3-yl)methyl)amino)-1-oxopropan-2-yl)-4-phenylpyrrolidine-2-carboxamide Di-trifluoroacetate salt], the Ki at mMASP-2 (read-out: mMASP-2 Ki) is greater than 25000 nM; at MASP-2 (CCP1-CCP2-SP) it was 500 to 2500 nM; on human α-thrombin (read-out: Thrombin Ki), greater than 25 µM.
